Broadly, the IC50 is the midpoint of a concentration-inhibition curve.

A value given as a limit tells only on which side of the number the result lay.

This is an account of results in patent publication US20240209011A1, “HETEROAROMATIC PHOSPHONIUM SALTS FOR TREATING CANCER” (FLORATEK PHARMA S.A., priority 2021, published 2024).

Assay [1] deals with panel of 30 kinases. The assay is described as follows: KINOMEscan primary screen. It is filed as binding. The conditions noted are these: % Ctrl between 0 and 10 selected for Kd. The protocol:
Selected compounds were screened for kinase inhibition using the KINOMEscan™ assay (Eurofins) which is based on a competition binding assay that quantitatively measures the ability of a compound to compete with an immobilized, active-site directed ligand. The assay was performed by combining three components: DNA-tagged kinase; immobilized ligand; and the test compound. The ability of the test compound to compete with the immobilized ligand was measured via quantitative PCR of the DNA tag.
Kinase-tagged T7 phage strains were prepared in an E. coli host derived from the BL21 strain. E. coli were grown to log-phase and infected with T7 phage and incubated with shaking at 32° C. until lysis. The lysates were centrifuged and filtered to remove cell debris. The remaining kinases were produced in HEK-293 cells and subsequently tagged with DNA for qPCR detection. Streptavidin-coated magnetic beads were treated with biotinylated small molecule ligands for 30 minutes at room temperature to generate affinity resins for kinase assays. The liganded beads were blocked with excess biotin and washed with blocking buffer (SeaBlock (Pierce), 1% BSA, 0.05% Tween 20, 1 mM DTT) to remove unbound ligand and to reduce non-specific binding. Binding reactions were assembled by combining kinases, liganded affinity beads, and test compounds in 1× binding buffer (20% SeaBlock, 0.17×PBS, 0.05% Tween 20, 6 mM DTT). Test compounds were prepared as 111× stocks in 100% DMSO. Kds were determined using an 11-point 3-fold compound dilution series with three DMSO control points. All compounds for Kd measurements are distributed by acoustic transfer (non-contact dispensing) in 100% DMSO. The compounds were then diluted directly into the assays such that the final concentration of DMSO was 0.9%. All reactions performed in polypropylene 384-well plate. Each was a final volume of 0.02 ml. The assay plates were incubated at room temperature with shaking for 1 hour and the affinity beads were washed with wash buffer (1×PBS, 0.05% Tween 20). […] The kinase concentration in the eluates was measured by qPCR. […]

Assay [2] concerns bile duct PDX. The assay is described as follows: Activity against bile duct PDX. It is filed as cell-based. The conditions noted are these: bile duct PDX growth; summary of Table 3. How it is done: (§1) PDX-derived cell cultures were obtained from tumors explanted from mice and isolated by mechanical and enzymatic dissociation. […] Cells were harvested and seeded in 96-wells plates at a density of 1.25 to 5×10^3 cells/well for cytotoxicity assays. Cells were incubated 48 h at 37° C. prior to addition of test molecules and vehicle (DMSO, 0.1%) at desired final concentrations. Cell viability was assessed before drugs' addition (To) and 5 days after test molecules addition by measuring ATP cell content using CellTiter-Glo® Luminescent Cell Viability Assay (Promega) according to the manufacturer's instructions. Luciferase activity was measured on a luminometer (PerkinElmer® EnVision™). Each concentration of compounds was tested in triplicate.
(§2) Viability was calculated as a percentage of ATP value compared to vehicle treated controls.
(§3) For PDX primary cell cultures, the tumour tissue was washed with PBS containing antibiotic-antimycotic and non-tumour tissue and necrotic tumour tissues were separated. The tumour tissue was transferred to a new dish and cut into 1-2 mm^3 fragments, resuspended in RPMI-1640 medium and centrifuged at 1,200 rpm for 6 min at room temperature. The pelleted material was resuspended with 15 mL of Tumour Cell Digestion Solution and incubated at 37° C. for 1 hour with agitation. Following further addition of media, centrifugation and passage through a […] cell strainer, the homogenous cell mixture was layered onto 15 mL of Ficoll-Paque PLUS in a 50 mL conical tube and centrifuged for 15 min at 1,600 rpm. The interface cells were collected, washed with media, separated by centrifugation at 1,200 rpm. The cell pellet was resuspended in serum free media supplemented with growth factors. 10,000 cells/wells were plated in a 96 well plate and incubated at 37° C., 5% CO2, 95% air and 100% relative humidity overnight. The cytotoxicity assay was conducted as above. IC50 values represent absolute IC50.

For assay [3], the system named is breast PDX. The experiment in a line: Activity against breast PDX. It counts as cell-based. Particulars: growth of breast PDX; summary of Table 6. How it is done: as §1, §2, §3
For assay [4], the system named is colon PDX. The experiment in a line: Activity against colon PDX. It counts as cell-based. Particulars: for IC50: growth of colon PDX, Table 8; for selectivity among colon PDX: colon PDX CO-04-0722 and CO-04-0700 versus CO-04-0701. How it is done:
as §1, §2, §3

The subject of assay [5] is stomach PDX. The experiment in a line: Activity against stomach PDX. It is filed as cell-based. The conditions noted are these: stomach PDX growth; summary of Table 23. The protocol: as §1, §2, §3

`O=c1cc(-c2ccc(CCCC[P+](c3ccccc3)(c3ccccc3)c3ccccc3)cc2)oc2c(O)c(O)ccc12` [SND118, 4-[4-(7,8-dihydroxy-4-oxo-chromen-2-yl)phenyl]butyltriphenyl-phosphonium bromide] returned a No. responsive kinases in assay [1] of 1.
As to `O=c1cc(-c2ccc(CCCC[P+](c3ccccc3)(c3ccccc3)c3ccccc3)cc2)oc2c3c(ccc12)OCO3.[Br-]` [SND123, 4-[4-(6-oxo-[1,3]dioxolo[4,5-h]chromen-8-yl)phenyl]butyl-triphenylphosphonium bromide], the IC50 in assay [2], in assay [3], in assay [4] and in assay [5] was < 20 µM in each case. Moreover, the No. responsive kinases in assay [1] stood at 4.
Consider `CCNC(=O)Oc1ccc2c(=O)cc(-c3ccc(CCCC[P+](c4ccccc4)(c4ccccc4)c4ccccc4)cc3)oc2c1OC(=O)NCC.[Br-]` [SND124, 4-[4-[7,8-Bis(ethylcarbamoyloxy)-4-oxo-chromen-2-yl]phenyl]-butyltriphenylphosphonium bromide], for which the half-inhibitory concentration (IC50) in assay [2], in assay [3], in assay [4] and in assay [5] was < 20 µM throughout. Also, the “selectivity among colon PDX” value in assay [4] was “marked selectivity toward CO-04-0722 and CO-04-0700”.
For the compound `CCNC(=O)Oc1ccc2c(=O)cc(-c3ccc(CCCC[P+](c4ccccc4)(c4ccccc4)c4ccccc4)cc3)oc2c1O.[Br-]` [SND126A, 4-[4-[7-(Ethylcarbamoyloxy)-8-hydroxy-4-oxo-chromen-2-yl]phenyl]butyltriphenylphosphonium bromide], the IC50 in assay [2], in assay [3], in assay [4] and in assay [5] was < 20 µM throughout. Also, the “selectivity among colon PDX” value in assay [4] is “marked selectivity toward CO-04-0722 and CO-04-0700”.
As to `CC(C)NC(=O)Oc1ccc2c(=O)cc(-c3ccc(CCCC[P+](c4ccccc4)(c4ccccc4)c4ccccc4)cc3)oc2c1O` [SND127, 4-[4-[7-(Isopropylcarbamoyloxy)-8-hydroxy-4-oxo-chromen-2-yl]phenyl]butyltriphenylphosphonium bromide], in assay [2], the IC50 was < 20 µM.
Take `COc1c(O)ccc2c(=O)cc(-c3ccc(CCCC[P+](c4ccccc4)(c4ccccc4)c4ccccc4)cc3)oc12.[Br-]` [SND140, (4-(4-(7-hydroxy-8-methoxy-4-oxo-4H-chromen-2-yl)phenyl)butyl)triphenylphosphonium bromide]: the IC50 in assay [2], in assay [3], in assay [4] and in assay [5] was < 20 µM in each case. This compound returned a No. responsive kinases in assay [1] of 4.
